The source made the active and inactive calls.
What was measured:
[1] = molecular target: Intestinal-type alkaline phosphatase (Homo sapiens, UniProt P09923); test: human intestinal alkaline phosphatase activators, dose response, biochemical, luminescence, uHTS hits (AID 463120); format: functional
[2] = viability loss in HepG2 hepatoma cells – cell-based, ATP luminescence, cherry-pick, activator set 2, cytotoxicity control, dose response (AID 1053143); format: functional
Streptococcus = test: GAS UMAA2166 growth inhibition – luminescence, BacTiterGlo, counter-screen for streptokinase expression inhibitor project, dose response (AID 1915); format: functional, organism-based;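 further: potency for reduction of bacterial viability or growth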
Vero = test: cells; format: functional; conditions: Chlorocebus sabaeus
[3] = HGIII-sPLA2 enzyme inhibition potency – biochemical, QFRET, IC50, dose response (AID 743457);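 further: green fluorescence rise as the enzyme cleaves BODIPY PC-A2 in liposomes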
[4] = Trypanosoma cruzi growth suppression in host cells – NIH3T3 host cells, beta-gal luminescence, confirmation (AID 2044); format: functional, cell-based;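 further: intracellular parasites grown in NIH/3T3 mouse fibroblasts as host cells; luminescent beta-galactosidase reporter signal from transgenic T. cruzi replicating inside host cells; inhibitors lower the luminescence signal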
[5] = fluconazole-exposed Candida albicans growth modulators – fluorescence, retest, confirmation (AID 2467); format: functional, cell-based
[6] = system: Streptococcus sp. 'group A'; test: Streptococcus pyogenes SK(-)GAS viability under kanamycin – luminescence, BacTiterGlo, confirmation, counter-screen for streptokinase expression inhibitor project, dose response (AID 1900); format: functional, organism-based
[7] = NIH-3T3 fibroblast cytotoxicity, dose response, cytotoxicity control, cell-based, fluorescence, Alamar Blue, secondary assay (AID 2327); format: functional;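 further: NIH-3T3 mouse fibroblasts cultured with fluconazole at 8 µg/mL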
[8] = viability loss in HepG2 hepatoma cells – cell-based, cherry-picks, set 5, cytotoxicity control, dose response (AID 1053118); format: functional
[9] = blockers of FN fibrillogenesis by fibroblasts – AH1F cells, Alexa488-FN fluorescence, cherry-picks, dose response (AID 1035475); format: functional, cell-based
[10] = viability loss in HEK293 kidney cells – cell-based, cherry-picks, set 5, cytotoxicity control, dose response (AID 1053117); format: functional
[11] = OVCAR-3 cell viability loss – plate reader, dry powder samples, PAX8 inhibitor project, dose response (AID 743044); format: functional, cell-based
[12] = toxicity toward immortalized ovarian surface epithelium – cell-based, plate reader, dry powder samples, cytotoxicity control for PAX8 inhibitor project, dose response (AID 743045); format: functional
[13] = OVCAR4 cell viability loss – plate reader, dry powder, SA11, cytotoxicity control for PAX8 inhibitor project, dose response (AID 743150); format: functional, cell-based; conditions: OVCAR-4
[14] = COV434 cell viability loss – plate reader, dry powder, SA7, cytotoxicity control for PAX8 inhibitor project, dose response (AID 743145); format: functional, cell-based
[15] = COV362 cell viability loss – plate reader, dry powder, SA12, cytotoxicity control for PAX8 inhibitor project, dose response (AID 743144); format: functional, cell-based
[16] = PAX8-dependent cell viability loss – plate reader, dry powder, dose response (AID 743049); format: functional, cell-based
[17] = inhibitors acting on PAX2 in cells – cell-based, plate reader, dry powder samples, selectivity assay for PAX8 inhibitor project, dose response (AID 743048); format: functional;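 further: HEK293 cells carrying a WT1 promoter luciferase reporter driven by expressed Pax2; potency is for inhibition of Pax2 driven reporter signal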
[18] = IGROV1 cell killing – plate reader, dry powder samples, PAX8 inhibitor project, dose response (AID 743043); format: functional, cell-based; conditions: IGROV-1
[19] = PAX5 cellular inhibition readout – cell-based, plate reader, dry powder samples, selectivity assay for PAX8 inhibitor project, dose response (AID 743047); format: functional;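 further: HEK293 cells carrying a Pax5 driven CD19 promoter luciferase reporter; potency of inhibitors that lower reporter luminescence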
[20] = OV-90 cell viability loss – plate reader, dry powder, SA8, PAX8 inhibitor project, dose response (AID 743149); format: functional, cell-based
Cryptococcus neoformans [21] = test: Cryptococcus growth inhibition by alamar blue – cell lysis, cherry-picks, replicate tests, mechanism study for C. neoformans antifungal project, dose response (AID 686999); format: functional, organism-based
Cryptococcus neoformans [22] = test: PubChem AID 686997; format: functional, organism-based
[23] = inhibitors of TRPM1-promoter reporter in SK-MEL-5 – cell-based, luciferase, dry powder, set 8, MITF inhibitor project, dose response (AID 624430); format: functional
[24] = MITF: Counter assay: A375 proliferation Measured in Cell-Based System Using Plate Reader - 2084-03_Inhibitor_Dose_DryPowder_Activity_Set8.; format: functional; conditions: A-375
[25] = MITF Orthogonal Assay: SK-MEL-5 CTG Assay Measured in Cell-Based System Using Plate Reader - 2084-02_Inhibitor_Dose_DryPowder_Activity_Set7.; format: functional
[26] = non-specific 3'UTR reporter inhibition in Clone20-Shn3RL – cell-based, Renilla luciferase, cherry-picked, counter-screen for Shn3 inhibitor project, dose response (AID 624133); format: functional
[27] = loss of viability in HepG2 cells – cell-based, CellTiter-Glo, cherry-picked, cytotoxicity control for Shn3 inhibitor project, dose response (AID 624134); format: functional
INS1 = test: INS-1E survival protection against cytokine death – cell-based, luminescence, retest, dose response (AID 449756); format: functional; conditions: Rattus norvegicus;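 further: cell death triggered by IL-1 beta plus TNF-alpha plus IFN-gamma mixture; protective hits raise ATP signal compared with cytokine alone wells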
[28] = general mammalian cell viability loss – inhibitor set, cherry-pick, set 2, cytotoxicity control for miR-122 modulator project, dose response (AID 720697); format: functional, cell-based
[29] = NIH3T3 cell viability loss – ATP luminescence, mouse fibroblasts, counter-screen, dose response (AID 2010); format: functional, cell-based;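 further: cells exposed to compound for about 90 hours before reading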
HEK293 = test: EBV LMP1 TES2 canonical NF-kB signalling blockers – cell-based, HEK293, luciferase, cherry-pick, dose response (AID 588343); format: functional; conditions: Homo sapiens
[30] = general mammalian cell viability loss – activator set, cherry-pick, cytotoxicity control for miR-122 modulator project, dose response (AID 720690); format: functional, cell-based;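 further: HEK293T human cells scored for general mammalian cytotoxicity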
[31] = reduction of Shn3 3'UTR-driven luciferase in osteoblasts – cell-based, Clone20 osteoblasts, firefly luciferase, cherry-picked, dose response (AID 624132); format: functional;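 further: firefly luciferase luminescence from reporter carrying the Shn3 3'UTR in osteoblasts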
[32] = HIV-1 AD8 envelope cell-cell fusion blockers – cherry-pick, dose response (AID 652062); format: functional, cell-based;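 further: luciferase signal from cell-cell fusion driven by HIV-1 clade B AD8 Env; potency is for inhibitors of fusion seen as a drop in luminescence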
[33] = viability loss in CEM21 cells – cell-based, CellTiter-Glo luminescence, cherry-picked, cytotoxicity control for viral fusion inhibitor project, dose response (AID 652042); format: functional;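 further: potency for signal decrease meaning cytotoxicity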
[34] = blockade of melanocortin 4 receptor signaling – cell-based, plate reader, cherry pick, counter-screen for LGR2 antagonist project, dose response (AID 743444); format: functional;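 further: transfected HEK 293 cells stimulated with alpha-MSH peptide; potency of inhibitors of the alpha-MSH evoked signal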
[35] = viability loss in HEK293 cells – cell-based, plate reader, cherry-picked samples, cytotoxicity control, dose response (AID 743446); format: functional
[36] = blockers of HIV-1 envelope-mediated cell-cell fusion – cherry-pick, dose response (AID 652057); format: functional, cell-based
[37] = off-target signal loss in HeLa-CEM21 co-culture – HeLa F-luc CTL cells, cherry-picked, counter-screen for HIV-1 Env fusion inhibitor project, dose response (AID 652040); format: functional, cell-based;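 further: potency for signal decrease marking cytotoxic or nonspecific inhibition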
[38] = toxicity toward HepG2 liver cells – cell-based, plate reader, cherry-pick, antagonist series, cytotoxicity control, dose response (AID 743416); format: functional
[39] = A549 cell cytotoxicity, dose response, cytotoxicity control, plate reader, cherry-pick, antagonist series (AID 743412); format: functional, cell-based
[40] = blockers of bursicon-stimulated LGR2 cAMP reporter – cell-based, HEK293, CRE-luciferase reporter, cherry pick, set 2, dose response (AID 743343); format: functional;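 further: transfected cells were stimulated with diluted bursicon conditioned medium after compound addition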
[41] = blockers of HIV-1 ZM109 envelope-driven cell-cell fusion – HeLa effector, CEM target cells, luciferase, cherry-pick, dose response (AID 652058); format: functional, cell-based;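 further: luciferase signal from HIV-1 Env mediated cell-cell fusion of effector and target cells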

Intestinal-type alkaline phosphatase, sequence (P09923 whole entry): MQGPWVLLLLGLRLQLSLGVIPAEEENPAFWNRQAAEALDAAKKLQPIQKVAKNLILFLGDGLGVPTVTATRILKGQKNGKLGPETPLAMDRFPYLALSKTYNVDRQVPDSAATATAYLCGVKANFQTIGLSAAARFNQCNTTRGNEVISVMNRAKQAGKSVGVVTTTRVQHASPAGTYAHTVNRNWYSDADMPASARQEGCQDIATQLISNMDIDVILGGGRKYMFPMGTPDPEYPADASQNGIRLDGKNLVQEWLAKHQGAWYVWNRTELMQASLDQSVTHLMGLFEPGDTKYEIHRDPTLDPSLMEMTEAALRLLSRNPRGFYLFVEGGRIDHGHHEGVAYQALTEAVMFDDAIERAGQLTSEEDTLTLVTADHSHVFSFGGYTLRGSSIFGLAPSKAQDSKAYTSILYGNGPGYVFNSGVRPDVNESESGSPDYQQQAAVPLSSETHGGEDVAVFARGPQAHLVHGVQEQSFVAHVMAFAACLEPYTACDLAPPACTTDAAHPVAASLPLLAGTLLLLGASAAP

c1ccc(Nc2ccnc(Nc3ccccc3)n2)cc1
inactive: EC50 [1] > 100 µM
active: AC50 [2] 26 µM

Cc1cc(C(=O)Nc2nc(-c3ccccn3)cs2)ccc1[N+](=O)[O-]
inactive: IC50 [3] > 122 µM | EC50 [7] > 150 µM
active: EC50 (Streptococcus) 7.36 µM | CC50 (Vero) > 25 µM | EC50 [4] 1.11 µM | EC50 [5] 1.25 µM | EC50 [6] 0.471 µM

CO[C@H]1CN(C)C(=O)c2ccc(NC(=O)Nc3ccc(Cl)c(Cl)c3)cc2OC[C@H](C)NC[C@@H]1C
active: AC50 [8] 11.2 µM | AC50 [9] 53.6 µM | AC50 [10] 18.4 µM

O=C(CCCN1C(=O)/C(=C\c2ccccc2OC(F)F)SC1=S)Nc1cccnc1
inactive: AC50 [17] > 100 µM
active: AC50 [11] 21.6 µM | AC50 [12] 46.9 µM | AC50 [13] 14.8 µM | AC50 [14] 34.5 µM | AC50 [15] 18.1 µM | AC50 [16] 7.44 µM | AC50 [18] 9.15 µM | AC50 [19] 81 µM | AC50 [20] 46.2 µM

COC(=O)C1=C(C)N(Cc2ccc(Cl)cc2)C(=S)NC1c1ccc(F)cc1 (stereo not drawn)
active: AC50 (Cryptococcus neoformans [21]) 43 µM | AC50 (Cryptococcus neoformans [22]) 35.4 µM | AC50 (Cryptococcus neoformans [22]; Cryptococcus neoformans) 23.6 µM

CN1CCN(C2=C(Nc3cccc(Cl)c3)C(=O)c3ccccc3C2=O)CC1
active: AC50 [23] 5.11 µM | AC50 [24] 30.7 µM | AC50 [25] 11.1 µM

COc1ccc(C(NC(C)=O)c2cc(Cl)c3cccnc3c2O)cc1 (stereo not drawn)
active: AC50 [26] 1.66 µM | AC50 [27] 3.17 µM | EC50 [4] 1.47 µM | AC50 (INS1) 1.95 µM | AC50 [28] 2.06 µM | EC50 [29] 4.23 µM | AC50 (HEK293) 4.38 µM | AC50 [30] 12.1 µM | AC50 [31] 1.61 µM

Cc1nc(N/N=C/c2ccccn2)sc1C
active: AC50 [32] 6.45 µM | AC50 [33] 6.02 µM | AC50 [34] 0.949 µM | AC50 [35] 7.53 µM | AC50 (INS1) 3.83 µM | AC50 [36] 3.74 µM | AC50 [37] 13.5 µM | AC50 [38] 2.7 µM | AC50 [39] 5.22 µM | AC50 [40] 0.573 µM | AC50 [41] 18.8 µM
